Legend:
[1] = In vitro release/permeation assay through porcine skin, Franz diffusion cells; format: in vitro ADME; settings: infinite dose 300 µL of 1% solution; for Papp at 4 h, 1 %: pig, read-out: Permeability Coef. Kp (converted)
Procedure: (§1) The in vitro release test was conducted with artificial membrane (Whatman® Nuclepore™) and porcine sublingual mucosa as well as pig skin membrane as a reference. Biological membranes (mucosa and skin) were dermatomed at 500 ± 50 µm of thickness. Membranes were placed in vertical Franz diffusion cells and conditioned in a thermostatic bath at 43 °C to assure a membrane surface temperature of 32 ± 1 °C as in the previous TMWL study. The receptor solution used was the same PBS:EtOH (1:1) as before. Data on the TWML, temperature, and humidity of the membrane were obtained before initiating the test with the Tewameter TM300 (Courage-Khazaka, Cologne, Germany).
(§2) On the modified mucosas, a volume of 70 µL of each formulation was applied and after one hour an infinite dose (300 µL) of tested solution was applied. […] Receptor fluid was collected at different times (30 min, 1 h, 2 h, 4 h) and the same volume was immediately replaced with fresh fluid. The aliquots were appropriately diluted and filtered (0.45 µm, Cameo, Sigma-Aldrich, St. Louis, MO, USA) before their analysis with HPLC/DAD.
(§3) The release of the active substances was determined with the cumulative amount released (Qn, μg/cm^2), which represents the cumulative amount of the active substances quantified in the receptor fluid per area of the sample [34]. The equation is as follows (1):(1) Qn=Cn×Vc+∑i=1n−1(Ci×Vs)/A, where Qn is the cumulative amount of active substance released at time n (μg/cm^2); Cn is the concentration of active substance in the collected sample (μg/mL); Vc is the volume of the Franz diffusion cell (3 mL); ∑i=1n−1 Ci is the sum of the active substance concentrations (µg/mL) determined in sampling intervals 1 to n − 1; Vs is the volume of the collected sample; and A is the surface area of the applied membrane (1.86 cm^2).
(§4) The best absorption model to describe the release of active substances was obtained from the graphic representation of data release (values/time), as described by Mallandrich et al.. All data collected were processed over time to obtain the best fit equation for each membrane using the nonlinear regression software STATGRAPHICS® plus 5 (Statgraphics Technologies, Inc., The Plains, VA, USA). Selection of the best equation was made in accordance with the highest correlation coefficient corrected for the number of degrees of freedom (R^2). Following that analysis, the parameters of the flow (J, […]), the permeability coefficient (Kp, cm/h), the delay time (Tl, h), the maximum concentration (Cmax, µg/mL), the maximum time (tmax, h), and the area under the curve (AUC) were calculated for each membrane.
(§5) The software was OpenLab (version 2.2.0). […] Methanol (Merck, Darmstadt, Germany) was used as an extraction solvent for all active substances. All analytical procedures were validated following the guidelines developed by the International Conference on Harmonization (ICH). The calibration curve, limit of quantification (LoQ), and limit of detection (LoD) were obtained and are detailed in Table 5.

[2] = In vitro release/permeation assay through porcine sublingual mucosa, unmodified or modified with formulations, Franz diffusion cells; format: in vitro ADME; settings: for permeability (in words): across skin, mucosa and modified mucosa; for decrease in the permeability coefficient promoted by F16: mucosa modified with F16 vs unmodified mucosa; for Papp at 4 h, 1 %: pig, read-out: Permeability Coef. Kp (converted); for area under the curve, flux and permeability through unmodified mucosa compared to skin: unmodified mucosa vs porcine skin
Procedure: as §1, §2, §3, §4, §5

[3] = cited from earlier work
[4] = cited from earlier work; remark: listed apart in the source

Compound | Flux. J [1] [µg/cm^2/h] | Lag Time. TL [1] [h] | Papp at 4 h, 1 % [1] [×10⁻⁶ cm/s] | Flux. J ([2]; MUCOSA F3) [µg/cm^2/h] | Lag Time. TL ([2]; MUCOSA F3) [h] | Flux. J ([2]; MUCOSA F6) [µg/cm^2/h] | Lag Time. TL ([2]; MUCOSA F6) [h] | Flux. J ([2]; MUCOSA F16) [µg/cm^2/h] | Lag Time. TL ([2]; MUCOSA F16) [h] | Flux. J ([2]; MUCOSA unmodified) [µg/cm^2/h] | Lag Time. TL ([2]; MUCOSA unmodified) [h] | permeability (in words) [2] | decrease in the permeability coefficient promoted by F16 [2] | Papp at 4 h, 1 % ([2]; MUCOSA F3) [×10⁻⁶ cm/s] | Papp at 4 h, 1 % ([2]; MUCOSA F6) [×10⁻⁶ cm/s] | Papp at 4 h, 1 % ([2]; MUCOSA F16) [×10⁻⁶ cm/s] | Papp at 4 h, 1 % ([2]; MUCOSA unmodified) [×10⁻⁶ cm/s] | area under the curve, flux and permeability through unmodified mucosa compared to skin [2] | pKa [3] | LogP (pH7.4) [4]
Cn1c(=O)c2c(ncn2C)n(C)c1=O [CAF, Caffeine] | 75.09 ± 51.32 | 0.65 ± 0.24 | 1.68 | 102.73 ± 30.73 | 0.10 ± 0.08 | 611.08 ± 85.12 | 0.28 ± 0.08 | 78.93 ± 11.05 | -0.18 ± 0.03 | 428.40 ± 81.41 | 0.04 ± 0.34 | high permeability | approximately 80% | 2.3 | 13.7 | 1.77 | 9.6 | approximately four times higher |  | 
C[C@@H]1C[C@H]2[C@@H]3CCC4=CC(=O)C=C[C@]4(C)[C@@]3(F)[C@@H](O)C[C@]2(C)[C@@]1(O)C(=O)CO [DEX, Dexamethasone] | 5.84 ± 3.46 | 0.62 ± 0.16 |  | 330.43 ± 11.68 | 0.36 ± 0.04 | 289.38 ± 99.51 | 0.64 ± 0.36 | 68.26 ± 1.67 | -0.11 ± 0.27 | 335.25 ± 61.25 | 0.31 ± 0.13 |  | approximately 80% |  |  |  |  |  | 12.1 | 
CC(C)Cc1ccc(C(C)C(=O)O)cc1 (stereo not shown) [IBU, Ibuprofen] | 24.79 ± 2.75 | -0.24 ± 0.19 | 0.569 | 498.25 ± 49.45 | 0.23 ± 0.01 | 451.01 ± 98.04 | 0.35 ± 0.06 | 74.41 ± 0.16 | 0.15 ± 0.003 | 346.91± 5.87 | 0.17 ± 0.07 | intermediate permeability | approximately 80% | 11.4 | 10.4 | 1.71 | 7.96 | 14 times higher |  | 
Ivermectin | 3.13 ± 0.86 | 0.59 ± 0.28 |  | 87.23 ± 21.83 | 0.28 ± 0.02 | 144.86 ± 29.93 | 0.32 ± 0.10 | 41.70 ± 5.67 | -0.09 ± 0.46 | 63.75 ± 1.57 | 0.24 ± 0.001 |  | approximately 40% |  |  |  |  |  | 12.47 | 5.83

From PMC10747729, “Permeation Protection by Waterproofing Mucosal Membranes” (Pharmaceutics, 2023)
